Measured values taken from PubChem BioAssay AID1963850 (Molecular Pharmacology Branch, DTP, NCI, 2024).

System: 192522-019-R-J2-PDC complex tumor spheroid viability
Assay: Anticancer human tumor 192522-019-R-J2-PDC patient-derived colon adenocarcinoma cell line growth inhibition [POLQ]
Conditions: for IC50: curve of first compound; for viability, T/C: stronger effect = lower value
Procedure, shortened: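 Patient-derived tumour cells were co-cultured with HUVEC and mesenchymal stem cells as multicellular spheroids at 37 °C. They were treated with POLQ inhibitors (novobiocin, ART-558, RP6685) alone or combined with other agents. Top concentrations were at or near clinical Cmax (otherwise 10 microM; SN-38 at 1 microM), decreasing in half-log steps.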

[1] = second compound 0.0316 µM, first compound 0.00316 µM
[2] = second compound 0.0316 µM, first compound 0.01 µM
[3] = second compound 0.0316 µM, first compound 0.0316 µM
[4] = second compound 0.0316 µM, first compound 0.1 µM
[5] = second compound 0.1 µM, first compound 0.00316 µM
[6] = second compound 0.1 µM, first compound 0.01 µM
[7] = second compound 0.1 µM, first compound 0.0316 µM
[8] = second compound 0.1 µM, first compound 0.1 µM
[9] = second compound 0.316 µM, first compound 0.00316 µM
[10] = second compound 0.316 µM, first compound 0.01 µM
[11] = second compound 0.316 µM, first compound 0.0316 µM
[12] = second compound 0.316 µM, first compound 0.1 µM
[13] = second compound 1 µM, first compound 0.00316 µM
[14] = second compound 1 µM, first compound 0.01 µM
[15] = second compound 1 µM, first compound 0.0316 µM
[16] = second compound 1 µM, first compound 0.1 µM
[17] = second compound 3.16 µM, first compound 0.00316 µM
[18] = second compound 3.16 µM, first compound 0.01 µM
[19] = second compound 3.16 µM, first compound 0.0316 µM
[20] = second compound 3.16 µM, first compound 0.1 µM
[21] = second compound 10 µM, first compound 0.00316 µM
[22] = second compound 10 µM, first compound 0.01 µM
[23] = second compound 10 µM, first compound 0.0316 µM
[24] = second compound 10 µM, first compound 0.1 µM
[25] = second compound 0.0316 µM, first compound 0.316 µM
[26] = second compound 0.0316 µM, first compound 1 µM
[27] = second compound 0.1 µM, first compound 0.316 µM
[28] = second compound 0.1 µM, first compound 1 µM
[29] = second compound 0.316 µM, first compound 0.316 µM
[30] = second compound 0.316 µM, first compound 1 µM
[31] = second compound 1 µM, first compound 0.316 µM
[32] = second compound 1 µM, first compound 1 µM
[33] = second compound 3.16 µM, first compound 0.316 µM
[34] = second compound 3.16 µM, first compound 1 µM
[35] = second compound 10 µM, first compound 0.316 µM
[36] = second compound 10 µM, first compound 1 µM
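Further: spheroids exposed to drugs for seven days before reading.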
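Wherever viability, T/C is given: 100% = DMSO vehicle control viability in luminescence.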

In the case of `CC[C@@]1(O)C(=O)OCc2c1cc1n(c2=O)Cc2cc3c(CN(C)C)c(O)ccc3nc2-1` + Cc1cccc(N(C)C(=O)C2C(O)CCN2c2nc(C)cc(C(F)(F)F)c2C#N)c1, the IC50 (second compound 0.0316 µM) is reported as over 100 nM, the IC50 (second compound 0.1 µM) is reported as over 100 nM and the IC50 (second compound 0.316 µM) is reported as over 100 nM. For the same compound, the IC50 (second compound 1 µM) was over 100 nM, the IC50 (second compound 3.16 µM) was over 100 nM and the IC50 (second compound 10 µM) was over 100 nM. It also gave a viability, T/C (second compound 0.0316 µM, first compound 0.000316 µM) of 116%, a viability, T/C (second compound 0.0316 µM, first compound 0.001 µM) of 93.7% and a viability, T/C [1] of 103%. The viability, T/C [2] was 99.2%, the viability, T/C [3] was 98.7% and the viability, T/C [4] was 62.4%. For the same compound, the viability, T/C (second compound 0.1 µM, first compound 0.000316 µM) was 106%, the viability, T/C (second compound 0.1 µM, first compound 0.001 µM) was 98.4% and the viability, T/C [5] was 102%. For the same compound, the viability, T/C [6] was 94.5%, the viability, T/C [7] was 88% and the viability, T/C [8] was 64.5%. The viability, T/C (second compound 0.316 µM, first compound 0.000316 µM) was 102%, the viability, T/C (second compound 0.316 µM, first compound 0.001 µM) was 106% and the viability, T/C [9] was 104%. For the same compound, the viability, T/C [10] was 102%, the viability, T/C [11] was 93.8% and the viability, T/C [12] was 70%. The viability, T/C (second compound 1 µM, first compound 0.000316 µM) was 106%, the viability, T/C (second compound 1 µM, first compound 0.001 µM) was 106% and the viability, T/C [13] was 111%. It also gave a viability, T/C [14] of 102%, a viability, T/C [15] of 96.2% and a viability, T/C [16] of 75.2%. For the same compound, the viability, T/C (second compound 3.16 µM, first compound 0.000316 µM) was 99.2%, the viability, T/C (second compound 3.16 µM, first compound 0.001 µM) was 114% and the viability, T/C [17] was 115%. It also gave a viability, T/C [18] of 98.4%, a viability, T/C [19] of 102% and a viability, T/C [20] of 79.5%. The viability, T/C (second compound 10 µM, first compound 0.000316 µM) was 110%, the viability, T/C (second compound 10 µM, first compound 0.001 µM) was 107% and the viability, T/C [21] was 120%. It also gave a viability, T/C [22] of 102%, a viability, T/C [23] of 95.3% and a viability, T/C [24] of 75%.

For `CCc1c2c(nc3ccc(O)cc13)-c1cc3c(c(=O)n1C2)COC(=O)[C@]3(O)CC` + Cc1cccc(N(C)C(=O)C2C(O)CCN2c2nc(C)cc(C(F)(F)F)c2C#N)c1, the IC50 (second compound 0.0316 µM) was 131 nM, the IC50 (second compound 0.1 µM) was 136 nM and the IC50 (second compound 0.316 µM) was 158 nM. The IC50 (second compound 1 µM) was 229 nM, the IC50 (second compound 3.16 µM) was 234 nM and the IC50 (second compound 10 µM) was 112 nM. For the same compound, the viability, T/C [1] was 95.4%, the viability, T/C [2] was 63.6% and the viability, T/C [3] was 72.2%. It also gave a viability, T/C [4] of 53.6%, a viability, T/C [25] of 40.3% and a viability, T/C [26] of 31.1%. It also gave a viability, T/C [5] of 91.5%, a viability, T/C [6] of 66.2% and a viability, T/C [7] of 75.8%. For the same compound, the viability, T/C [8] was 52.3%, the viability, T/C [27] was 36.7% and the viability, T/C [28] was 33.5%. It also gave a viability, T/C [9] of 104%, a viability, T/C [10] of 72.8% and a viability, T/C [11] of 70.5%. For the same compound, the viability, T/C [12] was 60.7%, the viability, T/C [29] was 38.8% and the viability, T/C [30] was 33.9%. The viability, T/C [13] was 95.1%, the viability, T/C [14] was 78.1% and the viability, T/C [15] was 71.9%. The viability, T/C [16] was 61%, the viability, T/C [31] was 44.5% and the viability, T/C [32] was 35%. It also gave a viability, T/C [17] of 101%, a viability, T/C [18] of 82.6% and a viability, T/C [19] of 79.1%. The viability, T/C [20] was 57.3%, the viability, T/C [33] was 45.8% and the viability, T/C [34] was 36.4%. The viability, T/C [21] was 97.6%, the viability, T/C [22] was 69.4% and the viability, T/C [23] was 68.8%. For the same compound, the viability, T/C [24] was 49.4%, the viability, T/C [35] was 42.6% and the viability, T/C [36] was 36.5%.

`COc1cc(C2c3cc4c(cc3C(OC3OC5COC(C)OC5C(O)C3O)C3COC(=O)C23)OCO4)cc(OC)c1O` (stereo unspecified) + Cc1cccc(N(C)C(=O)C2C(O)CCN2c2nc(C)cc(C(F)(F)F)c2C#N)c1 showed an IC50 (second compound 0.0316 µM) of over 10000 nM, an IC50 (second compound 0.1 µM) of over 10000 nM and an IC50 (second compound 0.316 µM) of over 10000 nM. It also gave an IC50 (second compound 1 µM) of over 10000 nM, an IC50 (second compound 3.16 µM) of over 10000 nM and an IC50 (second compound 10 µM) of over 10000 nM. It also gave a viability, T/C [3] of 96.8%, a viability, T/C [4] of 91.4% and a viability, T/C [25] of 103%. The viability, T/C [26] was 86.1%, the viability, T/C (second compound 0.0316 µM, first compound 3.16 µM) was 64.7% and the viability, T/C (second compound 0.0316 µM, first compound 10 µM) was 68.5%. For the same compound, the viability, T/C [7] was 103%, the viability, T/C [8] was 98.8% and the viability, T/C [27] was 97.1%. It also gave a viability, T/C [28] of 90.1%, a viability, T/C (second compound 0.1 µM, first compound 3.16 µM) of 58.6% and a viability, T/C (second compound 0.1 µM, first compound 10 µM) of 72.1%. The viability, T/C [11] was 107%, the viability, T/C [12] was 108% and the viability, T/C [29] was 96.4%. It also gave a viability, T/C [30] of 93.3%, a viability, T/C (second compound 0.316 µM, first compound 3.16 µM) of 65.8% and a viability, T/C (second compound 0.316 µM, first compound 10 µM) of 68.3%. The viability, T/C [15] was 108%, the viability, T/C [16] was 97.6% and the viability, T/C [31] was 98.9%. For the same compound, the viability, T/C [32] was 95.7%, the viability, T/C (second compound 1 µM, first compound 3.16 µM) was 70.5% and the viability, T/C (second compound 1 µM, first compound 10 µM) was 69.3%. The viability, T/C [19] was 113%, the viability, T/C [20] was 105% and the viability, T/C [33] was 102%. It also gave a viability, T/C [34] of 88.5%, a viability, T/C (second compound 3.16 µM, first compound 3.16 µM) of 79.9% and a viability, T/C (second compound 3.16 µM, first compound 10 µM) of 63.1%. It also gave a viability, T/C [23] of 117%, a viability, T/C [24] of 104% and a viability, T/C [35] of 105%. For the same compound, the viability, T/C [36] was 91.6%, the viability, T/C (second compound 10 µM, first compound 3.16 µM) was 80% and the viability, T/C (second compound 10 µM, first compound 10 µM) was 65.2%.
